Drawing on ChEMBL document CHEMBL5729236, “CIS-morpholinone and other compounds as MDM2 inhibitors for the treatment of cancer” (2022), this text covers IC50 for 3 compounds.

Chain of E3 ubiquitin-protein ligase Mdm2 (Q00987 whole entry): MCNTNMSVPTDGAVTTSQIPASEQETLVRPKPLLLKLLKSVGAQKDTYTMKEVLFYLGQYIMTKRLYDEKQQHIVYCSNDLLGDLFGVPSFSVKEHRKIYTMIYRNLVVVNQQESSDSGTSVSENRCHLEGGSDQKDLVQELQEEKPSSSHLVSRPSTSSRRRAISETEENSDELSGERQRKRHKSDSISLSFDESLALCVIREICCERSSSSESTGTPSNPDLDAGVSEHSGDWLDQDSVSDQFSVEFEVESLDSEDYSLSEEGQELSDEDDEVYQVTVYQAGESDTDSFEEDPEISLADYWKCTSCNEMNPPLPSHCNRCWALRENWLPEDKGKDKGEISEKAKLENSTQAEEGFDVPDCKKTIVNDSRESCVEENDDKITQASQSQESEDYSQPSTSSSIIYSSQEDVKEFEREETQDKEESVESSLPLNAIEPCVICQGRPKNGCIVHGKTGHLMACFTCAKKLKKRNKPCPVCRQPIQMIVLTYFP

The experiment has as its target E3 ubiquitin-protein ligase Mdm2 (Homo sapiens, UniProt Q00987). The experiment in a line: HTRF2 Assay: As the potencies of the HDM2 inhibitors increased, an improved HTRF assay (HTRF2 assay) was developed. All assay conditions remained the same as described above, with the exception of the following changes in reagent concentrations: 0.2 nM GST-hMDM2 (1-188), 0.5 nM biotinylated-p53 (1-83), 0.18 nM SA-XLent, and 100 mM KF.
The IC50 is the midpoint of a concentration-inhibition curve. Higher therefore signals a need for much substance. The compound `O=C1[C@H](CCCO)O[C@@H](c2cccc(Cl)c2)[C@@H](c2ccc(Cl)cc2)N1CC1CC1` (mixture of isomers) had an IC50 of 7230 nM.

`CCC[C@H](C(=O)N1CC(C(=O)O)C1)N1C(=O)[C@H](Cc2ccc(F)cc2)O[C@@H](c2ccc(Cl)cc2)[C@H]1c1ccc(Cl)cc1` (mixture of isomers) showed an IC50 of 524 nM. `CCC[C@H](C(=O)O)N1C(=O)CO[C@@H](c2ccc(Cl)cc2)[C@H]1c1cc2ccccc2[nH]1` (mixture of isomers) came in with an IC50 of 1290 nM.
